The NIST ThermoML archive (doi:10.1016/j.jct.2012.11.011)

Experiment: xn = mol fraction of the nth substance listed
Settings: Liquid, Vibrating tube method

COC(=O)OC [dimethyl carbonate] + CCCCCCCC
mass density [kg/m3]
Settings	x1 = 0.0535	x1 = 0.0978	x1 = 0.3935	x1 = 0.496	x1 = 0.5475	x1 = 0.5937	x1 = 0.7002	x1 = 0.8013	x1 = 0.8979	x1 = 0.9502
288.15 K, 100 kPa	716.4	723.8	791.6	822.9	840.9	854.9	899.6	941.7	1005	1036.8
288.15 K, 5000 kPa	719.8	727.9	796.9	827.5	844.6	862	904.6	952.4	1009	1043.2
288.15 K, 10000 kPa	723.6	731.9	801.1	831.8	849	866.2	908.9	956.9	1013.3	1047.5
288.15 K, 20000 kPa	730.9	739.3	808.8	839.6	857	874.3	917	965	1021.7	1055.7
288.15 K, 30000 kPa	737.5	745.8	816	846.9	864.3	881.6	924.4	972.5	1029.1	1063.1
288.15 K, 40000 kPa	743.7	752	822.8	853.8	871.2	888.7	931.6	979.7	1036.3	1070.4
298.15 K, 100 kPa	707.4	715.3	782.6	812.6	829.5	846.5	888.6	936	992.1	1025.9
298.15 K, 5000 kPa	712.2	720.2	787.8	817.9	834.9	851.7	893.9	941.4	997.3	1031.1
298.15 K, 10000 kPa	715.9	724.1	791.8	822	839	856.1	898.1	945.6	1001.5	1035.3
298.15 K, 20000 kPa	723.6	731.7	800.1	830.4	847.5	864.6	906.8	954.2	1010.1	1043.7
298.15 K, 30000 kPa	730.5	738.7	807.7	838.1	855.3	872.4	914.8	962.1	1018	1051.7
298.15 K, 40000 kPa	736.8	745.1	814.6	845.1	862.5	879.6	922	969.7	1025.6	1059.1
308.15 K, 100 kPa	699.2	706.9	772.9	802.3	819	835.7	877.3	924.1	979.6	1013.1
308.15 K, 5000 kPa	704	711.8	778.1	807.6	824.2	841	882.6	929.2	984.6	1018.1
308.15 K, 10000 kPa	708.3	716.2	782.8	812.4	829.1	845.9	887.5	934.4	989.6	1023.1
308.15 K, 20000 kPa	716.3	724.3	791.5	821.3	838.1	854.9	896.6	943.4	998.7	1032.1
308.15 K, 30000 kPa	723.7	731.6	799.6	829.5	846.4	863.3	905	951.9	1007.1	1040.4
308.15 K, 40000 kPa	730.4	738.4	806.9	836.9	853.9	870.8	912.8	959.7	1015	1048.3
